Results: patent US5250283A, “Organic contrast agent analog and method of making same” (priority 1992, dated 1993)
Where a name gives a salt, the structure may show the parent alone. Read-outs that look alike come from different tables or passages of the source.

Key:
[1] = Biliary excretion and bile flow after i.v. TFA-IOP (100 umol/kg) or IOP (100 in text, 104 umol/kg in tables) in rats; details: rat; for dose excreted at 10 min / dose excreted at 20 min / dose excreted at 0.5 h / dose excreted at 40 min / dose excreted at 50 min / dose excreted at 1 h / dose excreted at 70 min / dose excreted at 80 min / dose excreted at 1.5 h / dose excreted at 0 h: in vivo, iv, 100 umol/kg
Protocol: Tissues examined included liver, spleen, upper GI, lower GI, kidney, lung and heart. The length of each study was 90 minutes, during which time bile, urine and plasma samples were taken to monitor uptake and excretion. NMR relaxation rates for liver and plasma were also examined to note whether uptake of either compound might possible alter these parameters.

[2] = Tissue distribution 90 min after i.v. TFA-IOP (100 umol/kg) or IOP (100 in text, 104 umol/kg in tables) in rats; assay type: in vivo; details: rat; for concentration at 1.5 h / tissue uptake at 1.5 h: iv; for concentration at 1.5 h: 100 umol/kg; for Percentage of dose in tissue: Table 6; for tissue uptake at 1.5 h: in vivo, read-out: Percentage of dose per gram
Excerpt: No standard curves were compiled for these tissues. The values given
represent concentrations generated using the LIVER analysis routine and
standard curve. Because this routine utilizes a control LIVER spectra for
background modeling, erroneous Iodine concentration values for these
tissues may result due to inappropriate background removal.

[3] = i.v., period 10-0 min (pre-injection)
[4] = i.v., 90 min, Table 1, liver standard curve, may be erroneous

CCC(Cc1c(I)cc(I)c(NC(=O)C(F)(F)F)c1I)C(=O)O (centres unmarked) [TFA-IOP, N-trifluoroacetyl-iopanoic acid]
Bile flow per kg l.w. ([1]; i.v., 80-90 min): 1.986 ml/min per kg l.w.
Biliary excretion rate ([1]; i.v., 80-90 min): .121 µmol/min
Biliary excretion rate per kg b.w. ([1]; i.v., 80-90 min): .277 umoles/min per kg b.w.
Biliary excretion rate per kg l.w. ([1]; i.v., 80-90 min): 9.262 umoles/min per kg l.w.
umoles in bile sample ([1]; i.v., 80-90 min): 1.21 UMOLES
Bile flow [1, 3]: .02093 mL/min
Bile flow per kg b.w. [1, 3]: .04811 ml/min per kg b.w.
Bile flow per kg l.w. [1, 3]: 1.608 ml/min per kg l.w.
Biliary excretion rate [1, 3]: .013 µmol/min
Biliary excretion rate per kg b.w. [1, 3]: .031 umoles/min per kg b.w.
Biliary excretion rate per kg l.w. [1, 3]: 1.021 umoles/min per kg l.w.
umoles in bile sample [1, 3]: .13 UMOLES
umoles running total in bile ([1]; i.v., through 0-10 min): 1.36 UMOLES
umoles running total in bile ([1]; i.v., through 10-20 min): 3.48 UMOLES
umoles running total in bile ([1]; i.v., through 20-30 min): 6.09 UMOLES
umoles running total in bile ([1]; i.v., through 30-40 min): 8.42 UMOLES
umoles running total in bile ([1]; i.v., through 40-50 min): 10.75 UMOLES
umoles running total in bile ([1]; i.v., through 50-60 min): 13.13 UMOLES
umoles running total in bile ([1]; i.v., through 60-70 min): 14.60 UMOLES
umoles running total in bile ([1]; i.v., through 70-80 min): 16.00 UMOLES
umoles running total in bile ([1]; i.v., through 80-90 min): 17.21 UMOLES
umoles running total in bile ([1]; i.v., through period printed 10-0 min (pre-injection)): .13 UMOLES
rate of biliary excretion relative to IOP ([1]; i.v., vs IOP, FIG. 8): approximately twice
dose excreted at 10 min ([1]; Percentage of dose in bile sample, 0-10 min): 2.82%
dose excreted at 20 min ([1]; Percentage of dose in bile sample, 10-20 min): 4.88%
dose excreted at 0.5 h ([1]; Percentage of dose in bile sample, 20-30 min): 5.99%
dose excreted at 40 min ([1]; Percentage of dose in bile sample, 30-40 min): 5.37%
dose excreted at 50 min ([1]; Percentage of dose in bile sample, 40-50 min): 5.35%
dose excreted at 1 h ([1]; Percentage of dose in bile sample, 50-60 min): 5.48%
dose excreted at 70 min ([1]; Percentage of dose in bile sample, 60-70 min): 3.36%
dose excreted at 80 min ([1]; Percentage of dose in bile sample, 70-80 min): 3.24%
dose excreted at 1.5 h ([1]; Percentage of dose in bile sample, 80-90 min): 2.77%
dose excreted at 0 h ([1]; Percentage of dose in bile sample, period 10-0 min (pre-injection)): 0.31%
dose excreted at 10 min ([1]; Percentage of dose running total in bile, through 0-10 min): 3.12%
dose excreted at 20 min ([1]; Percentage of dose running total in bile, through 10-20 min): 8%
dose excreted at 0.5 h ([1]; Percentage of dose running total in bile, through 20-30 min): 14%
dose excreted at 40 min ([1]; Percentage of dose running total in bile, through 30-40 min): 19.4%
dose excreted at 50 min ([1]; Percentage of dose running total in bile, through 40-50 min): 24.7%
dose excreted at 1 h ([1]; Percentage of dose running total in bile, through 50-60 min): 30.2%
dose excreted at 70 min ([1]; Percentage of dose running total in bile, through 60-70 min): 33.6%
dose excreted at 80 min ([1]; Percentage of dose running total in bile, through 70-80 min): 36.8%
dose excreted at 1.5 h ([1]; Percentage of dose running total in bile, through 80-90 min): 39.6%
dose excreted at 0 h ([1]; Percentage of dose running total in bile, through period printed 10-0 min (pre-injection)): 0.31%
concentration at 1.5 h ([2]; heart, i.v., 90 min, liver standard curve used, may be erroneous, read-out: Heart concentration): 243 µM
% of dose in kidney ([2]; i.v., 90 min, Table 1): 0.34%
% of dose in liver ([2]; i.v., 90 min, Table 1): 6.04%
% of dose in heart [2, 4]: 0.72%
% of dose in lower GI [2, 4]: 0.63%
% of dose in lung [2, 4]: 0.83%
% of dose in spleen [2, 4]: 0.24%
% of dose in upper GI [2, 4]: 0.41%
Percentage of dose per kg b.wt. ([2]; i.v., 90 min, heart): 1.66 PERCENTAGE OF DOSE per kg b.wt
uMoles in tissue ([2]; i.v., 90 min, heart): .31 µmol
uMoles per gram tissue ([2]; i.v., 90 min, heart): .24 uMOLES per gram
uMoles per kg ([2]; i.v., 90 min, heart): 242.85 uMOLES per kg
Percentage of dose in tissue ([2]; i.v., 90 min, heart): .72 PERCENTAGE OF DOSE
Percentage of dose per kg b.wt. ([2]; i.v., 90 min, kidney): .78 PERCENTAGE OF DOSE per kg b.wt
uMoles in tissue ([2]; i.v., 90 min, kidney): .15 µmol
uMoles per gram tissue ([2]; i.v., 90 min, kidney): .06 uMOLES per gram
uMoles per kg ([2]; i.v., 90 min, kidney): 57.84 uMOLES per kg
Percentage of dose in tissue ([2]; i.v., 90 min, kidney): .34 PERCENTAGE OF DOSE
Percentage of dose per kg b.wt. ([2]; i.v., 90 min, liver): 13.88 PERCENTAGE OF DOSE per kg b.wt
uMoles in tissue ([2]; i.v., 90 min, liver): 2.63 µmol
uMoles per gram tissue ([2]; i.v., 90 min, liver): .20 uMOLES per gram
uMoles per kg ([2]; i.v., 90 min, liver): 201.73 uMOLES per kg
Percentage of dose in tissue ([2]; i.v., 90 min, liver): 6.04 PERCENTAGE OF DOSE
Percentage of dose per kg b.wt. ([2]; i.v., 90 min, lower GI): 1.45 PERCENTAGE OF DOSE per kg b.wt
uMoles in tissue ([2]; i.v., 90 min, lower GI): .27 µmol
uMoles per gram tissue ([2]; i.v., 90 min, lower GI): .18 uMOLES per gram
uMoles per kg ([2]; i.v., 90 min, lower GI): 178.09 uMOLES per kg
Percentage of dose in tissue ([2]; i.v., 90 min, lower GI): .63 PERCENTAGE OF DOSE
Percentage of dose per kg b.wt. ([2]; i.v., 90 min, lung): 1.91 PERCENTAGE OF DOSE per kg b.wt
uMoles in tissue ([2]; i.v., 90 min, lung): .36 µmol
uMoles per gram tissue ([2]; i.v., 90 min, lung): .28 uMOLES per gram
uMoles per kg ([2]; i.v., 90 min, lung): 277.64 uMOLES per kg
Percentage of dose in tissue ([2]; i.v., 90 min, lung): .83 PERCENTAGE OF DOSE
Percentage of dose per kg b.wt. ([2]; i.v., 90 min, spleen): .55 PERCENTAGE OF DOSE per kg b.wt
uMoles in tissue ([2]; i.v., 90 min, spleen): .10 µmol
uMoles per gram tissue ([2]; i.v., 90 min, spleen): .16 uMOLES per gram
uMoles per kg ([2]; i.v., 90 min, spleen): 164.06 uMOLES per kg
Percentage of dose in tissue ([2]; i.v., 90 min, spleen): .24 PERCENTAGE OF DOSE
Percentage of dose per kg b.wt. ([2]; i.v., 90 min, upper GI): .94 PERCENTAGE OF DOSE per kg b.wt
uMoles in tissue ([2]; i.v., 90 min, upper GI): .18 µmol
uMoles per gram tissue ([2]; i.v., 90 min, upper GI): .14 uMOLES per gram
uMoles per kg ([2]; i.v., 90 min, upper GI): 140.23 uMOLES per kg
Percentage of dose in tissue ([2]; i.v., 90 min, upper GI): .41 PERCENTAGE OF DOSE
tissue uptake at 1.5 h ([2]; 90 min, heart): 0.56 %ID/g
tissue uptake at 1.5 h ([2]; 90 min, kidney): 0.13 %ID/g
tissue uptake at 1.5 h ([2]; 90 min, liver): 0.46 %ID/g
tissue uptake at 1.5 h ([2]; 90 min, lower GI): 0.41 %ID/g
tissue uptake at 1.5 h ([2]; 90 min, lung): 0.64 %ID/g
tissue uptake at 1.5 h ([2]; 90 min, spleen): 0.38 %ID/g
tissue uptake at 1.5 h ([2]; 90 min, upper GI): 0.32 %ID/g
concentration at 1.5 h ([2]; kidney, i.v., 90 min post injection, heading: kidney concentration, read-out: kidney concentration): 57.8 µM
concentration at 1.5 h ([2]; kidney, i.v., 90 min post injection, read-out: Kidney concentration): 57.8 µM
concentration at 1.5 h ([2]; liver, i.v., 90 min post injection, read-out: Liver concentration): 202 µM
concentration at 1.5 h ([2]; liver, i.v., 90 min post injection, read-out: liver concentration): 202 µM
concentration at 1.5 h ([2]; lower gi, i.v., 90 min, liver standard curve used, may be erroneous, read-out: Lower GI concentration): 178 µM
concentration at 1.5 h ([2]; lung, i.v., 90 min, liver standard curve used, may be erroneous, read-out: Lung concentration): 278 µM
concentration at 1.5 h ([2]; spleen, i.v., 90 min, liver standard curve used, may be erroneous, read-out: Spleen concentration): 164 µM
concentration at 1.5 h ([2]; upper gi, i.v., 90 min, liver standard curve used, may be erroneous, read-out: Upper GI concentration): 140 µM
